Calls of active or inactive are those of the source. The rule behind the calls is not given here.
How the values were obtained:
[1] = molecular target: Ribosomal protein S6 kinase alpha-5 (Homo sapiens) (UniProt O75582); assay: Inhibition of MSK1 (unknown origin) at 1 uM
[2] = molecular target: Testis-specific serine/threonine-protein kinase 1 (Homo sapiens) (UniProt Q9BXA7); assay: Inhibition of STK22D (unknown origin) at 1 uM
[3] = molecular target: cAMP-dependent protein kinase catalytic subunit gamma (Homo sapiens) (UniProt P22612); assay: Inhibition of PKAcg (unknown origin) at 1 uM
[4] = molecular target: Ephrin type-A receptor 3 (Homo sapiens) (UniProt P29320); assay: Inhibition of EPHA3 (unknown origin) at 1 uM
[5] = molecular target: G protein-coupled receptor kinase 6 (Homo sapiens) (UniProt P43250); assay: Inhibition of GRK6 (unknown origin) at 1 uM
[6] = Metabolic stability in monkey liver microsomes assessed as rate constant; assay type: ADME, Macaca mulatta, Microsome; conditions: rhesus monkey
[7] = molecular target: cAMP-dependent protein kinase catalytic subunit alpha (Homo sapiens) (UniProt P17612); assay: Inhibition of PKA (unknown origin) at 1 uM
[8] = molecular target: Serine/threonine-protein kinase 3 (Homo sapiens) (UniProt Q13188); assay: Inhibition of MST2 (unknown origin) at 1 uM
[9] = molecular target: Cyclin-dependent kinase 5/CDK5 activator 1 (Homo sapiens) (UniProt Q00535+Q15078); assay: Inhibition of CDK5/p25 (unknown origin) at 1 uM; assay type: protein-complex assay
[10] = molecular target: Serine/threonine-protein kinase N1 (Homo sapiens) (UniProt Q16512); assay: Inhibition of PKN1 (unknown origin) at 1 uM
[11] = molecular target: Activated CDC42 kinase 1 (Homo sapiens) (UniProt Q07912); assay: Inhibition of ACK1 (unknown origin) at 1 uM
[12] = molecular target: Hepatocyte growth factor receptor (Homo sapiens) (UniProt P08581); assay: Inhibition of c-MET (unknown origin) at 1 uM
[13] = molecular target: Serine/threonine-protein kinase D2 (Homo sapiens) (UniProt Q9BZL6); assay: Inhibition of PKD2 (unknown origin) at 1 uM
[14] = molecular target: Serine/threonine-protein kinase PLK2 (Homo sapiens) (UniProt Q9NYY3); assay: Inhibition of PLK2 (unknown origin) at 1 uM
[15] = molecular target: Focal adhesion kinase 1 (Homo sapiens) (UniProt Q05397); assay: Inhibition of FAK (unknown origin) at 1 uM
[16] = Clearance in Sprague-Dawley rat at 5 mg/kg, iv; assay type: ADME, organism-based; conditions: in vivo
[17] = molecular target: Dual specificity mitogen-activated protein kinase kinase 6 (Homo sapiens) (UniProt P52564); assay: Inhibition of MKK6 (unknown origin) at 1 uM
[18] = molecular target: Tyrosine-protein kinase ZAP-70 (Homo sapiens) (UniProt P43403); assay: Inhibition of ZAP70 (unknown origin) at 1 uM
[19] = molecular target: 3-phosphoinositide-dependent protein kinase 1 (Homo sapiens) (UniProt O15530); assay: Inhibition of PDK1 (unknown origin) at 1 uM
HCT-116 = assay: Antitumor immunity in BALB/c mouse xenografted with human HCT-116 cells assessed as increase in IFNgamma in serum by […]; assay type: functional, cell-based
[20] = molecular target: Homeodomain-interacting protein kinase 1 (Homo sapiens) (UniProt Q86Z02); assay: Inhibition of HIPK1 (unknown origin) at 1 uM
[21] = molecular target: Mitogen-activated protein kinase kinase kinase 19 (Homo sapiens) (UniProt Q56UN5); assay: Inhibition of YSK4 (unknown origin) at 1 uM
[22] = molecular target: Serine/threonine-protein kinase 25 (Homo sapiens) (UniProt O00506); assay: Inhibition of STK25 (unknown origin) at 1 uM
[23] = molecular target: Tyrosine-protein kinase ITK/TSK (Homo sapiens) (UniProt Q08881); assay: Inhibition of ITK (unknown origin) at 1 uM
[24] = Volume of distribution at steady state in Sprague-Dawley rat at 5 mg/kg, iv; assay type: ADME, organism-based; conditions: in vivo, read-out: Vdss
[25] = molecular target: NUAK family SNF1-like kinase 2 (Homo sapiens) (UniProt Q9H093); assay: Inhibition of SNARK (unknown origin) at 1 uM
[26] = molecular target: Serine/threonine-protein kinase BRSK2 (Homo sapiens) (UniProt Q8IWQ3); assay: Inhibition of BRSK2 (unknown origin) at 1 uM
[27] = molecular target: Voltage-gated inwardly rectifying potassium channel KCNH2 (Homo sapiens, UniProt Q12809); assay: Inhibition of human ERG
[28] = molecular target: Protein kinase C delta type (Homo sapiens) (UniProt Q05655); assay: Inhibition of PKCdelta (unknown origin)at 1 uM
[29] = molecular target: Serine/threonine-protein kinase TBK1 (Homo sapiens) (UniProt Q9UHD2); assay: Inhibition of TBK1 (unknown origin) at 1 uM
[30] = molecular target: Cyclin-dependent kinase 4/cyclin D1 (Homo sapiens) (UniProt P11802+P24385); assay: Inhibition of CDK4/cyclin-D1 (unknown origin) at 1 uM; assay type: protein-complex assay
[31] = molecular target: Non-receptor tyrosine-protein kinase TNK1 (Homo sapiens) (UniProt Q13470); assay: Inhibition of TNK1 (unknown origin) at 1 uM
[32] = molecular target: Glycogen synthase kinase-3 alpha (Homo sapiens) (UniProt P49840); assay: Inhibition of GSK3A (unknown origin) at 1 uM
[33] = molecular target: Serine/threonine-protein kinase/endoribonuclease IRE1 (Homo sapiens) (UniProt O75460); assay: Inhibition of ERN1 (unknown origin) at 1 uM
[34] = molecular target: Ribosomal protein S6 kinase alpha-6 (Homo sapiens) (UniProt Q9UK32); assay: Inhibition of RSK4 (unknown origin) at 1 uM
[35] = Metabolic stability in mouse liver microsomes assessed as rate constant; assay type: ADME, Microsome
[36] = molecular target: Cyclin-dependent kinase 14/Cyclin-Y (Homo sapiens) (UniProt O94921+Q8ND76); assay: Inhibition of CDK14/cyclin-Y (unknown origin) at 1 uM; assay type: protein-complex assay
[37] = molecular target: Serine/threonine-protein kinase/endoribonuclease IRE2 (Homo sapiens) (UniProt Q76MJ5); assay: Inhibition of ERN2 (unknown origin) at 1 uM
[38] = molecular target: Maternal embryonic leucine zipper kinase (Homo sapiens) (UniProt Q14680); assay: Inhibition of MELK (unknown origin) at 1 uM
[39] = molecular target: Fibroblast growth factor receptor 3 (Homo sapiens) (UniProt P22607); assay: Inhibition of FGFR3 (unknown origin) at 1 uM
[40] = molecular target: Dual specificity mitogen-activated protein kinase kinase 7 (Homo sapiens) (UniProt O14733); assay: Inhibition of MKK7 (unknown origin) at 1 uM
[41] = molecular target: Mast/stem cell growth factor receptor Kit (Homo sapiens) (UniProt P10721); assay: Inhibition of c-KIT (unknown origin) at 1 uM
[42] = Clearance in mouse liver microsomes; assay type: ADME, Microsome; conditions: read-out: CLH
Rattus norvegicus = assay: Toxicity in rat assessed as weight loss at […]; assay type: organism-based; conditions: in vivo
[43] = molecular target: Casein kinase I isoform gamma-2 (Homo sapiens) (UniProt P78368); assay: Inhibition of CK1gamma2 (unknown origin) at 1 uM

Sequence of Serine/threonine-protein kinase BRSK2 (Homo sapiens) (Q8IWQ3 whole entry): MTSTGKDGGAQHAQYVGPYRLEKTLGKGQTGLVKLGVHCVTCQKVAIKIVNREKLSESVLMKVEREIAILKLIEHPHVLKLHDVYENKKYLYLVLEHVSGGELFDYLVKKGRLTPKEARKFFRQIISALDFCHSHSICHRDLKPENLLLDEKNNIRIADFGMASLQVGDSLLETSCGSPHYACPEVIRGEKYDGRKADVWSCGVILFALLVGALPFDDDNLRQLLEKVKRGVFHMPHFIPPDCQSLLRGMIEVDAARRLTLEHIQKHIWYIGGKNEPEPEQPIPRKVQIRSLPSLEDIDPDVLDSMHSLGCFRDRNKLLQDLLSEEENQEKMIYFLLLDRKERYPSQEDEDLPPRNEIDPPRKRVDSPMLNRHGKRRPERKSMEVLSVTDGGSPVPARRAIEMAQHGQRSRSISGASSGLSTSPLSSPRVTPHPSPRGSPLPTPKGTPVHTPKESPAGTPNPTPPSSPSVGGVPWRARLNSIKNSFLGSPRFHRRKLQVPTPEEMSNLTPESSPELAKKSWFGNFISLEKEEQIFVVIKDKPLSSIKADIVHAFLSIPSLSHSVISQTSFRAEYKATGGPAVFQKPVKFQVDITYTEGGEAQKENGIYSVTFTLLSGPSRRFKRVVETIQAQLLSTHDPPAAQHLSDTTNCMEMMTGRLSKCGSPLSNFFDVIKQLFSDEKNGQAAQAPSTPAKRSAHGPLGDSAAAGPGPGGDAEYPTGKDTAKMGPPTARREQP
Sequence of Serine/threonine-protein kinase D2 (Homo sapiens) (Q9BZL6 whole entry): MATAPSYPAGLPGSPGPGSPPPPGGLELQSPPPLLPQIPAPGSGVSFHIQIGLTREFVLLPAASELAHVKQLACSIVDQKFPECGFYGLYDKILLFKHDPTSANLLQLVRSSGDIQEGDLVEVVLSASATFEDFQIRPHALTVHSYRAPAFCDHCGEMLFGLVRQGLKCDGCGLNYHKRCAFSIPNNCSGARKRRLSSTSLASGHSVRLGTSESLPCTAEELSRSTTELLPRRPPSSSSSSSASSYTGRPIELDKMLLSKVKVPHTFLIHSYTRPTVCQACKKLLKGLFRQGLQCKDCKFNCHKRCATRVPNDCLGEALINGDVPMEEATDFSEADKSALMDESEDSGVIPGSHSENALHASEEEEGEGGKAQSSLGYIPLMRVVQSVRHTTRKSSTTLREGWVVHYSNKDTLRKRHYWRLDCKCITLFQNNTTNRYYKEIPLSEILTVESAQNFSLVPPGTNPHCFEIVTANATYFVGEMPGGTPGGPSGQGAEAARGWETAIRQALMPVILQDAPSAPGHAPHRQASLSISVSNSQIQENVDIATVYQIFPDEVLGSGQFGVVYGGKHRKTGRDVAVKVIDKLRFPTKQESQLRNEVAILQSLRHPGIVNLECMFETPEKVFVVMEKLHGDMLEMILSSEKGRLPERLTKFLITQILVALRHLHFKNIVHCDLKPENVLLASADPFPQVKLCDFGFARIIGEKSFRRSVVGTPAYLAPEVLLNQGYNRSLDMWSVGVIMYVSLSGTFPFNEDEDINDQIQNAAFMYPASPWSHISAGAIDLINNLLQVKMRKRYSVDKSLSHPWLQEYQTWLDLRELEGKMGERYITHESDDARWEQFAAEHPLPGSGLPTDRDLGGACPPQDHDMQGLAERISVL
Sequence of Serine/threonine-protein kinase PLK2 (Homo sapiens) (Q9NYY3 whole entry, looked up): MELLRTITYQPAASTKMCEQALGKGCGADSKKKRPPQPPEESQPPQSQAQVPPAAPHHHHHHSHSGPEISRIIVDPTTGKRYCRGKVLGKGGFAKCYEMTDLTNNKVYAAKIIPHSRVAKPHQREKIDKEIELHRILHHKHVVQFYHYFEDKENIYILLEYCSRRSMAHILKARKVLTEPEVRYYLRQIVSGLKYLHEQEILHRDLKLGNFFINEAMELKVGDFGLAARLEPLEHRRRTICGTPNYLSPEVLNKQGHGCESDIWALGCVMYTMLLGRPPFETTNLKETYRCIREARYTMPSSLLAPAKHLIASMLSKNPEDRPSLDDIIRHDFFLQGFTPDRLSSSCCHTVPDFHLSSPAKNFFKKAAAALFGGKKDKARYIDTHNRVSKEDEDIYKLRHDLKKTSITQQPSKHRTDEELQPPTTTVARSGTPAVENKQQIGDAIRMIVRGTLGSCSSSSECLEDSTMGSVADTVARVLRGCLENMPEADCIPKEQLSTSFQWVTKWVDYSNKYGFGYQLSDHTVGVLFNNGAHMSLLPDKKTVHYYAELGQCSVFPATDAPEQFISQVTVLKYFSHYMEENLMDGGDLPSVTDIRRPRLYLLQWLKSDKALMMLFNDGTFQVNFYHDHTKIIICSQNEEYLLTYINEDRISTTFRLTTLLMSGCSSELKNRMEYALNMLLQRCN
Sequence of Focal adhesion kinase 1 (Homo sapiens) (Q05397 2-1052 limits assumed): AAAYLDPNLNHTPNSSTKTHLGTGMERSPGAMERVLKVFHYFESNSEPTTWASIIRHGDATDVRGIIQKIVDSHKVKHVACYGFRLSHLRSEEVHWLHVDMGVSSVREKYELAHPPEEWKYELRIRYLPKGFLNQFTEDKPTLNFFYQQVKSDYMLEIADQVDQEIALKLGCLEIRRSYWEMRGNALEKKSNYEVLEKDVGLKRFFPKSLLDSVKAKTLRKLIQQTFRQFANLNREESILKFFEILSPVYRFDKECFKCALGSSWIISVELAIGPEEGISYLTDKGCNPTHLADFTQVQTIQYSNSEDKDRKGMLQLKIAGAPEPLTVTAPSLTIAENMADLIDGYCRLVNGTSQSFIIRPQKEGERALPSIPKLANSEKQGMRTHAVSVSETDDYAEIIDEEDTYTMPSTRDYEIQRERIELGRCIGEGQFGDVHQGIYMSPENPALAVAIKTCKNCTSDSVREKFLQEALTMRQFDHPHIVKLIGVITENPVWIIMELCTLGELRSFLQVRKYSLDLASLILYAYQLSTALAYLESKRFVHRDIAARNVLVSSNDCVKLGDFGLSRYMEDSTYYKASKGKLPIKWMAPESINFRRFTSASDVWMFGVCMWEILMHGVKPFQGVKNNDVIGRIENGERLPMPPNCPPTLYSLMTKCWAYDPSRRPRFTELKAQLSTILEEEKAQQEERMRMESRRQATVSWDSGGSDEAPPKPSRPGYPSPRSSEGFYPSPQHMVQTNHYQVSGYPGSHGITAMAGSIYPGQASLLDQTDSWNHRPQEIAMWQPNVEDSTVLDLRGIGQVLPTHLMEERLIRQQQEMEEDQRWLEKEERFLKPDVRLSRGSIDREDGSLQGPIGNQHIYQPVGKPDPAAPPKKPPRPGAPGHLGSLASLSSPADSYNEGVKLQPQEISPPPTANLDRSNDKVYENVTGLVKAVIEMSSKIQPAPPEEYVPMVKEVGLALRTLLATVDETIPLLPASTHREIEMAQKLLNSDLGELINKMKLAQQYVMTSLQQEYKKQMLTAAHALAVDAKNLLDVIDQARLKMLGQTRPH
Sequence of Mitogen-activated protein kinase kinase kinase 19 (Homo sapiens) (Q56UN5 whole entry): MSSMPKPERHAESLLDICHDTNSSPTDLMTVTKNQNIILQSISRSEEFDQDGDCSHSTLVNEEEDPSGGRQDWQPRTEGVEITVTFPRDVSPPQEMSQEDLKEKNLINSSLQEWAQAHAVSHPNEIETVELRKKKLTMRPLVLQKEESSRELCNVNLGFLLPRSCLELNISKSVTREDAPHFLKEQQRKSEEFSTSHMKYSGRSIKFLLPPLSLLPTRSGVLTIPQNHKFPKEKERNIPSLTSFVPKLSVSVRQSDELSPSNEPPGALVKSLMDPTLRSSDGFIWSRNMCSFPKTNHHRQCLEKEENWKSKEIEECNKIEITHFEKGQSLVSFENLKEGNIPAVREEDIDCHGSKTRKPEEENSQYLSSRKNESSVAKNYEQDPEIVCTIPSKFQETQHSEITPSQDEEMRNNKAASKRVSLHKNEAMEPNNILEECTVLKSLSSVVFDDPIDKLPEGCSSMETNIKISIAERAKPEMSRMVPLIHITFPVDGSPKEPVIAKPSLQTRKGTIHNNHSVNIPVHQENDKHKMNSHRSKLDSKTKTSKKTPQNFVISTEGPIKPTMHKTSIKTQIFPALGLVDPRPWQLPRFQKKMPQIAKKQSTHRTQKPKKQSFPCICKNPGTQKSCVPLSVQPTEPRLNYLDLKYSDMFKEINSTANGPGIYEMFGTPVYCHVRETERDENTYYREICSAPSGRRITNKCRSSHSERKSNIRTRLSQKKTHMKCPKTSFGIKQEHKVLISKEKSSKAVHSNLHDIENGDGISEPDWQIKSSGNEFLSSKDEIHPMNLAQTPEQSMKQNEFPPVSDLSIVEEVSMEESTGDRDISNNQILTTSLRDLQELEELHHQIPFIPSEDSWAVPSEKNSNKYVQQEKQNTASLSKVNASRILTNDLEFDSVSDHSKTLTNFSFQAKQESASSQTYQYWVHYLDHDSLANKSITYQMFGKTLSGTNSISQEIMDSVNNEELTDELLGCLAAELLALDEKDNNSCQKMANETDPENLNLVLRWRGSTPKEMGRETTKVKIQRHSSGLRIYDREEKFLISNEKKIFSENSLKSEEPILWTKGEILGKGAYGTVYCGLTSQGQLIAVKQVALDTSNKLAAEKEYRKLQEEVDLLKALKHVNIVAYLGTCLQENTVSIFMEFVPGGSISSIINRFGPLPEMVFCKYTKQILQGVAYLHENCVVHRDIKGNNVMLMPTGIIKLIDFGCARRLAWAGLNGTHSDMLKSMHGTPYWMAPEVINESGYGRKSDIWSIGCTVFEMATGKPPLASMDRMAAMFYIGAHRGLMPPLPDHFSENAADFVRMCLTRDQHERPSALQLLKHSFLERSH
Sequence of Dual specificity mitogen-activated protein kinase kinase 6 (Homo sapiens) (P52564 whole entry): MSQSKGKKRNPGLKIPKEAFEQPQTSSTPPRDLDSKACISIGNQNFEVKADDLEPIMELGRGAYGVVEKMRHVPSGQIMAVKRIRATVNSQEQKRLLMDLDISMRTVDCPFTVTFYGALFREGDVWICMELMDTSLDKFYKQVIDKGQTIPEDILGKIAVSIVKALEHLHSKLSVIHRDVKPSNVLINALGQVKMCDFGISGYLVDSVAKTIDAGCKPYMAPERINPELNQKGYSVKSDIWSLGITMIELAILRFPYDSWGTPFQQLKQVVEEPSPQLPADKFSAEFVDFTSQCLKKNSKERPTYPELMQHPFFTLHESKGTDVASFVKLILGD

With `OCCOCc1cn(CCNc2nonc2/C(=N/O)Nc2ccc(F)c(Br)c2)nn1` the inhibition [1] was “inactive”, the inhibition [2] was “inactive” and the inhibition [3] was “inactive”. For the same compound, the inhibition [4] was “inactive”, the inhibition [5] was “inactive” and the k el [6] was 0.0003 s⁻¹. The inhibition [7] was “inactive”, the inhibition [8] was “inactive” and the inhibition [9] was “inactive”. For the same compound, the inhibition [10] was “inactive”, the inhibition [11] was “inactive” and the inhibition [12] was “inactive”. The inhibition [13] was “inactive”, the inhibition [14] was “inactive” and the inhibition [15] was “inactive”. The clearance [16] was 27.5 mL/min/kg, the inhibition [17] was “inactive” and the inhibition [18] was “inactive”. The inhibition [19] was “inactive”, the Activity (HCT-116) was “Active” and the inhibition [20] was “inactive”. For the same compound, the inhibition [21] was “inactive”, the inhibition [22] was “inactive” and the inhibition [23] was “inactive”. For the same compound, the Vd [24] was 0.88 L/kg, the inhibition [25] was “inactive” and the inhibition [26] was “inactive”. For the same compound, the IC50 [27] was > 30 µM, the inhibition [28] was “inactive” and the inhibition [29] was “inactive”. For the same compound, the inhibition [30] was “inactive”, the inhibition [31] was “inactive” and the inhibition [32] was “inactive”. For the same compound, the inhibition [33] was “inactive”, the inhibition [34] was “inactive” and the K [35] was 0.0161 min⁻¹. The inhibition [36] was “inactive”, the inhibition [37] was “inactive” and the inhibition [38] was “inactive”. For the same compound, the inhibition [39] was “inactive”, the inhibition [40] was “inactive” and the inhibition [41] was “inactive”. The microsomal CLint [42] was 32.2 µL/min/mg, the Activity (Rattus norvegicus) was “Non-Toxic” and the inhibition [43] was “inactive”.
